The record followed here is US20120115793A1, “PEPTIDOMIMETIC MACROCYCLES” (Alleron Therapeutics, Inc, priority 2008, published 2012).

Read-outs that look alike come from different tables or passages of the source. Where a SMILES comes first, the peptide text is derived from it. Bridges are numbered along the chain shown (N, C = ends). [ ]: non-standard residue; d: D form. R8 = C=CCCCCCC[C@@](C)(N)C(=O)O; S5 = C=CCCC[C@](C)(N)C(=O)O; Abu = CC[C@H](N)C(=O)O

This experiment relates to Molt-4 cell line. Format: cell-based. How it is done:
Molt-4 cell line (ATCC catalog #CRL-1582) was grown in specific serum-supplemented media (RPMI-1640, Invitrogen catalog #72400) as recommended by ATCC. A day prior to the initiation of the study, cells were split at optimal cell density (2×10^5-5×10^5 cells/ml) to assure actively dividing cells. The next day, cells were washed twice in serum-free Opti-MEM media (Invitrogen, Catalog #51985) and cells were then plated at optimal cell density (10,000 cells/well) in 50 μl Opti-MEM media or Opti-MEM supplemented with 2%, 4% or 10% human serum (Bioreclamation, catalog #HMSRM) in 96-well white tissue culture plate (Nunc, catalog #136102).
For serum free experiment, peptidomimetic macrocycles were diluted from 2 mM stocks (100% DMSO) in sterile water to prepare 400 μM working solutions. The macrocycles and controls were diluted 10-fold first and then serially two-fold diluted in Opti-MEM in dosing plates to provide concentrations of between 1.2 and 40 μM. 50 μL of each dilution was then added to the appropriate wells of the test plate to achieve final concentrations of the polypeptides equal to between 0.6 to 20 μM. For studies using Opti-MEM supplemented with human serum (Bioreclamation, catalog #HMSRM), peptidomimetic macrocycles were diluted from 10 mM stocks (100% DMSO) in sterile water to prepare 2 mM working solutions. The peptide macrocycles and controls were diluted 10-fold first and then serially two-fold diluted in Opti-MEM in the presence of 2%, 4% or 10% of human serum to provide concentrations of the polypeptides equal to between 6.25 to 200 μM in dosing plates. 50 μL of each dilution was then added to the appropriate welts of the test plate to achieve final concentrations of the polypeptides equal to between 3.125 to 100 μM. Controls included wells without polypeptides containing the same concentration of DMSO as the wells containing the macrocycles, wells containing 0.1% Triton X-100 and wells containing no cells. Plates were incubated for 48 hours at 37° C. in humidified 5% CO2 atmosphere.
At the end of the incubation period, CellTiter-Glo assay was performed according to manufacturer's instructions (Promega, catalog #G7573) and luminescence was measured using Synergy HT Plate reader (BioTek).
The following macrocycles derived from the human MAML peptide sequences were tested in cell viability assays with the MOLT-4 tumor cell line: […]

As usually defined, the EC50 is the concentration at which the effect is half-maximal. In the case of `CC[C@H](C)[C@H](NC(=O)[C@H](CCCNC(=N)N)NC(=O)[C@H](CCCNC(=N)N)NC(=O)[C@H](CCCNC(=N)N)NC(=O)[C@H](CC(C)C)NC(=O)[C@H](C)NC(C)=O)C(=O)N[C@@]1(C)CCCC=CCCC[C@@](C)(C(=O)N[C@@H](Cc2c[nH]cn2)C(=O)N[C@@H](Cc2c[nH]cn2)C(=O)N[C@@H](CO)C(=O)N[C@H](C(N)=O)[C@@H](C)O)NC(=O)[C@H](C)NC(=O)[C@H](CO)NC(=O)[C@H](CC(C)C)NC1=O` [Compound 21, Ac-ALRRRI$LSA$HHST-NH2] (Ac-ALRRRI[S5]LSA[S5]HHST-NH2; staple 7-11), the EC50 (48 h) was > 20 µM.

As to `CC[C@H](C)[C@H](NC(=O)[C@H](CCCNC(=N)N)NC(=O)[C@H](CCCNC(=N)N)NC(=O)[C@H](CCCNC(=N)N)NC(=O)[C@H](CC(C)C)NC(=O)[C@H](CCCNC(=N)N)NC(=O)[C@H](CCC(=O)O)NC(C)=O)C(=O)N[C@@H](CCC(=O)O)C(=O)N[C@@H](CC(C)C)C(=O)N[C@@H](CS)C(=O)N[C@@H](CCCNC(=N)N)C(=O)N[C@@H](CCCNC(=N)N)C(=O)N[C@@H](Cc1c[nH]cn1)C(=O)N[C@@H](Cc1c[nH]cn1)C(=O)N[C@@H](CO)C(=O)N[C@H](C(N)=O)[C@@H](C)O` [Compound 2, Ac-ERLRRRIELCRRHHST-NH2] (Ac-ERLRRRIELCRRHHST-NH2), the EC50 (48 h) is > 20 µM.

Turning to `CC[C@H](C)[C@H](NC(=O)[C@H](CCCNC(=N)N)NC(=O)[C@H](CCCNC(=N)N)NC(=O)[C@H](CCCNC(=N)N)NC(=O)[C@H](CC(C)C)NC(=O)[C@H](C)NC(=O)[C@H](CCC(=O)O)NC(C)=O)C(=O)N[C@@]1(C)CCCC=CCCC[C@@](C)(C(=O)N[C@@H](Cc2c[nH]cn2)C(=O)N[C@@H](Cc2c[nH]cn2)C(=O)N[C@@H](CO)C(=O)N[C@H](C(N)=O)[C@@H](C)O)NC(=O)[C@H](C)NC(=O)[C@H](CS)NC(=O)[C@H](CC(C)C)NC1=O` [Compound 7, Ac-EALRRRI$LCA$HHST-NH2] (Ac-EALRRRI[S5]LCA[S5]HHST-NH2; staple 8-12), the EC50 (48 h) is 11.5 µM.

`CC[C@H](C)[C@H](NC(=O)[C@H](CCCNC(=N)N)NC(=O)[C@H](CCCNC(=N)N)NC(=O)[C@H](CCCNC(=N)N)NC(=O)[C@H](CC(C)C)NC(=O)[C@H](C)NC(C)=O)C(=O)N[C@@]1(C)CCCC=CCCC[C@@](C)(C(=O)N[C@@H](Cc2c[nH]cn2)C(=O)N[C@@H](Cc2c[nH]cn2)C(=O)N[C@@H](CO)C(=O)N[C@H](C(N)=O)[C@@H](C)O)NC(=O)[C@H](C)NC(=O)[C@H](C)NC(=O)[C@H](CC(C)C)NC1=O` [Compound 20, Ac-ALRRRI$LAA$HHST-NH2] (Ac-ALRRRI[S5]LAA[S5]HHST-NH2; staple 7-11): the EC50 (48 h) was ≥ 24.4 µM.

Take `CC[C@H](C)[C@@H]1NC(=O)[C@@](C)(NC(=O)[C@H](CCCNC(=N)N)NC(=O)[C@H](CCCNC(=N)N)NC(=O)[C@H](CC(C)C)NC(=O)[C@H](CCCNC(=N)N)NC(=O)[C@H](CCC(=O)O)NC(C)=O)CCCC=CCCC[C@@](C)(C(=O)N[C@@H](CCCNC(=N)N)C(=O)N[C@@H](CCCNC(=N)N)C(=O)N[C@@H](Cc2c[nH]cn2)C(=O)N[C@@H](Cc2c[nH]cn2)C(=O)N[C@@H](CO)C(=O)N[C@H](C(N)=O)[C@@H](C)O)NC(=O)[C@H](CC(C)C)NC(=O)[C@H](CCC(=O)O)NC1=O` [Compound 16, Ac-ERLRR$IEL$RRHHST-NH2] (Ac-ERLRR[S5]IEL[S5]RRHHST-NH2; staple 6-10): the EC50 (48 h) stood at 11.7 µM.

For the molecule `CC[C@H](C)[C@@H]1NC(=O)[C@H](CCCNC(=N)N)NC(=O)[C@H](CCCNC(=N)N)NC(=O)[C@@](C)(NC(=O)[C@H](CC(C)C)NC(=O)[C@H](CCC(=O)O)NC(=O)[C@H](CCCNC(=N)N)NC(C)=O)CCCC=CCCC[C@@](C)(C(=O)N[C@@H](CC(C)C)C(=O)N[C@@H](CS)C(=O)N[C@@H](CCCNC(=N)N)C(=O)N[C@@H](CCCNC(=N)N)C(=O)N[C@@H](Cc2c[nH]cn2)C(=O)N[C@@H](Cc2c[nH]cn2)C(=O)N[C@@H](CO)C(=O)N[C@H](C(N)=O)[C@@H](C)O)NC1=O` [Compound 8, Ac-REL$RRI$LCRRHHST-NH2] (Ac-REL[S5]RRI[S5]LCRRHHST-NH2; staple 4-8), the EC50 (48 h) is 11.5 µM.

As to `CC[C@@H]1NC(=O)[C@H](CC(C)C)NC(=O)[C@@](C)(NC(=O)[C@@H](NC(=O)[C@H](CCCNC(=N)N)NC(=O)[C@H](CCCNC(=N)N)NC(=O)[C@H](CCCNC(=N)N)NC(=O)[C@H](CC(C)C)NC(=O)[C@H](C)NC(=O)[C@H](CCCNC(=N)N)NC(C)=O)[C@@H](C)CC)CCCC=CCCC[C@@](C)(C(=O)N[C@@H](Cc2c[nH]cn2)C(=O)N[C@@H](Cc2c[nH]cn2)C(=O)N[C@@H](CO)C(=O)N[C@H](C(N)=O)[C@@H](C)O)NC(=O)[C@H](C)NC1=O` [Compound 31, Ac-RALRRRI$LAbuA$HHST-NH2] (Ac-RALRRRI[S5]L[Abu]A[S5]HHST-NH2; staple 8-12), where the note is “48 h”, the EC50 was found to be 3.7 µM.

Take `CC[C@H](C)[C@H](NC(=O)[C@H](CCCNC(=N)N)NC(=O)[C@H](CCCNC(=N)N)NC(=O)[C@H](CCCNC(=N)N)NC(=O)[C@H](CC(C)C)NC(=O)[C@H](C)NC(C)=O)C(=O)N[C@@H](CCC(=O)O)C(=O)N[C@@H](CC(C)C)C(=O)N[C@@H](C)C(=O)N[C@@H](C)C(=O)N[C@@H](CCCNC(=N)N)C(=O)N[C@@H](Cc1c[nH]cn1)C(=O)N[C@@H](Cc1c[nH]cn1)C(=O)N[C@@]1(C)CCCC=CCCC[C@@](C)(C(=O)N[C@@H](CCCNC(=N)N)C(=O)N[C@@H](Cc2ccc(O)cc2)C(=O)N[C@@H](CCC(=O)O)C(=O)N[C@@H](C)C(=O)N[C@H](C(N)=O)C(C)C)NC(=O)[C@H](CCC(=O)O)NC(=O)[C@H](C)NC(=O)[C@H]([C@@H](C)O)NC1=O` [Compound 24, Ac-ALRRRIELAARHH$TAE$RYEAV-NH2] (Ac-ALRRRIELAARHH[S5]TAE[S5]RYEAV-NH2; staple 14-18): the EC50 (48 h) was > 20 µM.

Regarding `CC[C@H](NC(=O)[C@H](CC(C)C)NC(=O)[C@H](CCC(=O)O)NC(=O)[C@@H](NC(=O)[C@H](CCCNC(=N)N)NC(=O)[C@H](CCCNC(=N)N)NC(=O)[C@H](CCCNC(=N)N)NC(=O)[C@H](CC(C)C)NC(=O)[C@H](C)NC(C)=O)[C@@H](C)CC)C(=O)N[C@@H](C)C(=O)N[C@]1(C)CCCCCCC=CCCC[C@@](C)(C(=O)N[C@@H](CCCNC(=N)N)C(=O)N[C@@H](Cc2ccc(O)cc2)C(=O)N[C@@H](CCC(=O)O)C(=O)N[C@@H](C)C(=O)N[C@H](C(N)=O)C(C)C)NC(=O)[C@H](CCC(=O)O)NC(=O)[C@H](CC)NC(=O)[C@H]([C@@H](C)O)NC(=O)[C@H](CO)NC(=O)[C@H](Cc2c[nH]cn2)NC(=O)[C@H](Cc2c[nH]cn2)NC1=O` [Compound 25, Ac-ALRRRIELAbuA$r8HHSTAbuE$RYEAV-NH2] (Ac-ALRRRIEL[Abu]A[R8]HHST[Abu]E[S5]RYEAV-NH2; staple 11-18), the EC50 (MOLT-4 cells, 48 hours incubation, CellTiter-Glo, read-out: Molt 4 viability (EC50)) was > 20 µM.

Take `CC[C@H](C)[C@H](NC(=O)[C@H](CCCNC(=N)N)NC(=O)[C@H](CCCNC(=N)N)NC(=O)[C@H](CCCNC(=N)N)NC(=O)[C@H](CC(C)C)NC(=O)[C@H](CCCNC(=N)N)NC(=O)[C@H](CCC(=O)O)NC(C)=O)C(=O)N[C@@]1(C)CCCC=CCCC[C@@](C)(C(=O)N[C@@H](Cc2c[nH]cn2)C(=O)N[C@@H](Cc2c[nH]cn2)C(=O)N[C@@H](CO)C(=O)N[C@H](C(=O)N[C@@H](CS)C(=O)N[C@@H](CCC(=O)O)C(=O)N[C@@H](C)C(=O)N[C@@H](CCCNC(=N)N)C(=O)N[C@@H](Cc2ccc(O)cc2)C(=O)N[C@@H](CCC(=O)O)C(=O)N[C@@H](C)C(=O)N[C@H](C(N)=O)C(C)C)[C@@H](C)O)NC(=O)[C@H](CCCNC(=N)N)NC(=O)[C@H](CS)NC(=O)[C@H](CC(C)C)NC1=O` [Compound 15, Ac-ERLRRRI$LCR$HHSTCEARYEAV-NH2] (Ac-ERLRRRI[S5]LCR[S5]HHSTCEARYEAV-NH2; staple 8-12): under “48 h”, the EC50 worked out at 2.2 µM.
